From ChEMBL document CHEMBL6127141, “1-Deoxynojirimycin Derivative Containing Tegafur Induced HCT-116 Cell Apoptosis through Mitochondrial Dysfunction and Oxidative Stress Pathway” (ACS Med Chem Lett, 2024)
Activity calls are given as the source filed them. No cut-off for these calls is given here.

Legend:
[1] = Lipophilicity, logP of compound in n-octanol saturated PBS incubated for 24 hrs by shake-flask method based ultraviolet spectrophotometry; format: physicochemical
HCT-116 [2] = experiment: Induction of apoptosis in human HCT-116 cells assessed as apoptotic cells at 10 uM incubated for 24 hrs by Annexin V-FITC/PI staining based flow cytometric analysis relative to control; format: functional
HCT-116 [3] = experiment: Induction of cell cycle arrest in human HCT-116 cells assessed as accumulation of cells at S phase at 10 uM incubated for 24 hrs by flow cytometric analysis (reference value: 4.7 %); format: functional
[4] = Selectivity index, ratio of IC50 for cytotoxicity against human L02 cells to IC50 for cytotoxicity against human HCT-116 cells; format: toxicity, cell-based; details: L02 cells and HCT-116 cells, read-out: Ratio IC50
Mitochondrial membrane = experiment: Induction of mitochondrial membrane potential loss in human HCT-116 cells assessed as decrease in red fluorescence at 10 uM incubated for 24 hrs by JC-1 staining based fluorescence microscopic analysis; format: cell membranes
HCT-116 [5] = experiment: Induction of ROS accumulation in human HCT-116 cells assessed as increase in green fluorescence intensity at 5 to 10 uM incubated for 24 hrs by DCFH-DA staining based fluorescence microscopic analysis; format: functional, cell-based; details: dose 5-10 µM
BGC-823 = experiment: Cytotoxicity against human BGC-823 cells assessed as inhibition of cell proliferation incubated for 48 hrs by MTT assay; format: functional, cell-based; details: BGC-823, 48 h
HCC1937 = experiment: Cytotoxicity against human HCC1937 cells assessed as inhibition of cell proliferation incubated for 48 hrs by MTT assay; format: functional, cell-based; details: HCC1937, 48 h
HCT-116 [6] = experiment: Induction of ROS accumulation in human HCT-116 cells assessed as increase in green fluorescence intensity at 5 to 10 uM preincubated with NAC for 3 hrs followed by compound addition and measured after 24 hrs by DCFH-DA staining based fluorescence microscopic analysis; format: functional, cell-based; details: dose 5-10 µM
HCT-116 [7] = experiment: Cytotoxicity against human HCT-116 cells assessed as inhibition of cell proliferation incubated for 48 hrs by MTT assay; format: functional, cell-based; details: HCT-116, 48 h
HCT-116 [8] = experiment: Cytotoxicity against human HCT-116 cells assessed as inhibition of cell proliferation at 5 to 10 uM preincubated with NAC for 3 hrs followed by compound addition and measured after 48 hrs by MTT assay; format: functional, cell-based; details: dose 5-10 µM
HepG2 = experiment: Cytotoxicity against human HepG2 cells assessed as inhibition of cell proliferation incubated for 48 hrs by MTT assay; format: functional, cell-based; details: HepG2, 48 h
Alpha glucosidase = Alpha glucosidase (Homo sapiens, UniProt O43451+P10253+P14410+Q2M2H8); experiment: Inhibition of alpha-glucosidase (unknown origin) using para-nitrophenyl-alpha-d-glucopyranoside as substrate preincubated for 5 mins followed by substrate addition and measured after 30 mins by microplate reader; format: protein assay
HCT-116 [9] = experiment: Induction of apoptosis in human HCT-116 cells assessed as cell contraction at 10 uM incubated for 24 hrs by Hoechst 33342 staining based fluorescence microscopic analysis; format: functional
L02 = experiment: Cytotoxicity against human L02 cells assessed as inhibition of cell proliferation incubated for 48 hrs by MTT assay; format: functional, cell-based; details: L02, 48 h
HCT-116 [10] = experiment: Induction of oxidative stress in human HCT-116 cells assessed as increase in MDA level at 5 to 10 uM incubated for 24 hrs by Lipid Peroxidation MDA assay; format: functional, cell-based; details: dose 5-10 µM
HCT-116 [11] = experiment: Induction of apoptosis in human HCT-116 cells assessed as upregulation of Bax protein level at 10 uM incubated for 24 hrs by Western blot analysis; format: functional, cell-based
HeLa = experiment: Cytotoxicity against human HeLa cells assessed as inhibition of cell proliferation incubated for 48 hrs by MTT assay; format: functional, cell-based
HCT-116 [12] = experiment: Inhibition of colony formation in human HCT-116 cells at 5 to 10 uM incubated for 48 hrs by crystal purple staining based analysis; format: functional, cell-based; details: dose 5-10 µM
HCT-116 [13] = experiment: Anti-metastatic activity in human HCT-116 cells assessed as inhibition of cell migration by measuring wound healing rate at 10 uM incubated for 24 hrs by inverted fluorescence microscopic analysis relative to control; format: functional; set-up: scale not given: the % may be the effect or the level left
[14] = Potency index, ratio of 1-Deoxynojirimycin IC50 to test compound IC50 for cytotoxicity against human HCT-116 cells assessed as inhibition of cell proliferation incubated for 48 hrs by MTT assay; format: functional
HCT-116 [15] = experiment: Induction of DNA damage in human HCT-116 cells assessed as increase in TS protein expression at 10 uM incubated for 24 hrs by Western blot analysis; format: functional, cell-based
HCT-116 [16] = experiment: Induction of oxidative stress in human HCT-116 cells assessed as decrease in SOD concentration at 5 to 10 uM incubated for 24 hrs; format: functional, cell-based; details: dose 5-10 µM
HCT-116 [17] = experiment: Induction of apoptosis in human HCT-116 cells assessed as appearance of bright blue appearance at 10 uM incubated for 24 hrs by Hoechst 33342 staining based fluorescence microscopic analysis; format: functional, cell-based
HCT-116 [18] = experiment: Induction of apoptosis in human HCT-116 cells assessed as downregulation of Bcl2 protein level at 10 uM incubated for 24 hrs by Western blot analysis; format: functional, cell-based
HCT-116 [19] = experiment: Induction of oxidative stress in human HCT-116 cells assessed as decrease in Nrf2 level at 10 uM incubated for 24 hrs by Western blot analysis; format: functional, cell-based
A549 = experiment: Cytotoxicity against human A549 cells assessed as inhibition of cell proliferation incubated for 48 hrs by MTT assay; format: functional, cell-based; details: A549, 48 h
HCT-116 [20] = experiment: Induction of oxidative stress in human HCT-116 cells assessed as decrease in GSH concentration at 5 to 10 uM incubated for 24 hrs; format: functional, cell-based; details: dose 5-10 µM
HCT-116 [21] = experiment: Induction of oxidative stress in human HCT-116 cells assessed as increase in NO level at 5 to 10 uM incubated for 24 hrs; format: functional, cell-based; details: dose 5-10 µM
HCT-116 [22] = experiment: Induction of cell cycle arrest in human HCT-116 cells assessed as accumulation of cells at S phase at 10 uM incubated for 24 hrs in presence of 1-Deoxynojirimycin by flow cytometric analysis (reference value: 4.7 %); format: functional
HCT-116 [23] = experiment: Induction of apoptosis in human HCT-116 cells assessed as apoptotic cells at 10 uM incubated for 24 hrs in presence of 1-Deoxynojirimycin by Annexin V-FITC/PI staining based flow cytometric analysis relative to control; format: functional
HCT-116 [24] = experiment: Anti-metastatic activity in human HCT-116 cells assessed as inhibition of cell migration by measuring wound healing rate at 10 uM incubated for 24 hrs in presence of 1-Deoxynojirimycin by inverted fluorescence microscopic analysis relative to control; format: functional; set-up: scale not given: the % may be the effect or the level left
HCT-116 [25] = experiment: Anti-metastatic activity in human HCT-116 cells assessed as inhibition of cell migration by measuring wound healing rate at 10 uM incubated for 24 hrs in presence of tegafur by inverted fluorescence microscopic analysis relative to control; format: functional; set-up: scale not given: the % may be the effect or the level left
HCT-116 [26] = experiment: Induction of cell cycle arrest in human HCT-116 cells assessed as accumulation of cells at S phase at 10 uM incubated for 24 hrs in presence of tegafur by flow cytometric analysis (reference value: 4.7 %); format: functional
HCT-116 [27] = experiment: Induction of apoptosis in human HCT-116 cells assessed as apoptotic cells at 10 uM incubated for 24 hrs in presence of tegafur by Annexin V-FITC/PI staining based flow cytometric analysis relative to control; format: functional

| logP at 24 h [1] | IC50 (Alpha glucosidase) [µM] | Compound | Activity (HCT-116 [2]) [%] | Activity (HCT-116 [3]) [%] | selectivity ratio [4] | IC50 (BGC-823) [µM] | IC50 (HCC1937) [µM] | IC50 (HCT-116 [7]) [µM] | IC50 (HepG2) [µM] | IC50 (L02) [µM] | IC50 (HeLa) [µM] | Activity (HCT-116 [13]) [%] | IC50 (A549) [µM] | also measured |
| --- | --- | --- | --- | --- | --- | --- | --- | --- | --- | --- | --- | --- | --- | --- |
| 1.02 | 2.76 | O=c1c(F)cn(C2CCCO2)c(=O)n1CCCCCCCCCCCN1C[C@H](O)[C@@H](O)[C@H](O)[C@H]1CO (some centres not stated) | 69.8 | 49.31 | 14.4 | 4.35 | 9.14 | 1.37 | 7.72 | 19.7 | 13 | 9.42 | 6.34 | Activity (Mitochondrial membrane): Active; Activity (HCT-116 [5]): Active; Activity (HCT-116 [6]): inactive; Activity (HCT-116 [8]): inactive; Activity (HCT-116 [9]): Active; Activity (HCT-116 [10]): Active; Activity (HCT-116 [11]): Active; inhibition (HCT-116 [12]): Active; Ratio IC50 [14]: 73; Activity (HCT-116 [15]): Active; Activity (HCT-116 [16]): Active; Activity (HCT-116 [17]): Active; Activity (HCT-116 [18]): Active; Activity (HCT-116 [19]): Active; Activity (HCT-116 [20]): Active; Activity (HCT-116 [21]): Active |
| -2.49 | 40.96 | O=c1c(F)cn(C2CCCO2)c(=O)n1CCCCCN1C[C@H](O)[C@@H](O)[C@H](O)[C@H]1CO (some centres not stated) | – | – | 3.6 | 38.6 | 43.2 | 15.6 | 40.7 | 56.3 | 29.3 | – | 57.6 | – |
| – | – | O=c1[nH]c(=O)n(C2CCCO2)cc1F (configuration not stated) [TEGAFUR] | 8.99 | 43.81 | 0.27 | 99.4 | > 100 | 88.6 | > 100 | 23.5 | 96.1 | 44.37 | > 100 | Activity (HCT-116 [22]): 34.84%; Activity (HCT-116 [23]): 15.17%; Activity (HCT-116 [24]): 32% |
| -0.68 | – | OC[C@H]1NC[C@H](O)[C@@H](O)[C@@H]1O [DUVOGLUSTAT] | 6.16 | 11.29 | – | > 100 | > 100 | > 100 | > 100 | > 100 | > 100 | 51.91 | > 100 | Activity (HCT-116 [25]): 32%; Activity (HCT-116 [26]): 34.84%; Activity (HCT-116 [27]): 15.17% |
| -0.65 | 15.09 | O=c1c(F)cn(C2CCCO2)c(=O)n1CCCCCCCCN1C[C@H](O)[C@@H](O)[C@H](O)[C@H]1CO (some centres not stated) | – | – | 4 | 12.5 | 19.7 | 7.32 | 14.8 | 29.3 | 26.8 | – | 19.4 | – |
